According to PubChem BioAssay AID1259407 (Chemical Carcinogenesis Research Information System (CCRIS), 2018):
“Also recorded” adds a separate entry of the source. Active and inactive are the calls of the source. No rule for the calls is given here.

Tested on: CCRIS mutagenicity, Ames/micronucleus/aberration tests
Test: CCRIS mutagenicity studies

## CC/C(=C(/CC)c1ccc(O)cc1)c1ccc(O)cc1
End Point: IN VITRO CHROMOSOMAL ABERRATIONS, Test System: CHINESE HAMSTER CELL DON (22;XY), Metabolic Activation: NONE
  mutagenic call: active; positive (ploidy changes)
End Point: IN VITRO CHROMOSOMAL ABERRATIONS, Test System: HUMAN LYMPHOCYTES, Metabolic Activation: NONE, Method: FISH
  mutagenic call: active; positive (ploidy changes in chromosomes 1, 9, 16); also recorded: active; positive (ploidy changes in chromosomes 7 and 9)
End Point: IN VITRO CHROMOSOMAL ABERRATIONS, Test System: HUMAN PERIPHERAL LYMPHOCYTES, Metabolic Activation: NONE
  mutagenic call: inactive; negative
End Point: IN VITRO CHROMOSOMAL ABERRATIONS, Test System: SYRIAN HAMSTER EMBRYO (SHE) CELLS, Metabolic Activation: NONE
  mutagenic call: active; positive (ploidy changes)
End Point: IN VITRO MICRONUCLEUS, Test System: HUMAN PERIPHERAL LYMPHOCYTES, Metabolic Activation: NONE
  mutagenic call: active; positive
End Point: IN VITRO MICRONUCLEUS, Test System: V79 CELLS, Metabolic Activation: NONE
  mutagenic call: active; positive
Test System: AMES SALMONELLA TYPHIMURIUM, Strain/Indicator: TA97, Metabolic Activation: HAMSTER LIVER S-9, AROCLOR 1254 (10%), Method: PREINCUBATION
  mutagenic call: inactive; negative
Test System: AMES SALMONELLA TYPHIMURIUM, Strain/Indicator: TA97, Metabolic Activation: HAMSTER LIVER S-9, AROCLOR 1254 (30%), Method: PREINCUBATION
  mutagenic call: inactive; negative
Test System: AMES SALMONELLA TYPHIMURIUM, Strain/Indicator: TA97, Metabolic Activation: NONE, Method: PREINCUBATION
  mutagenic call: inactive; negative
Test System: AMES SALMONELLA TYPHIMURIUM, Strain/Indicator: TA97, Metabolic Activation: NONE, Method: STANDARD PLATE
  mutagenic call: inactive; negative
Test System: AMES SALMONELLA TYPHIMURIUM, Strain/Indicator: TA97, Metabolic Activation: RAT LIVER S-9, AROCLOR 1254 (10%), Method: PREINCUBATION
  mutagenic call: inactive; negative
Test System: AMES SALMONELLA TYPHIMURIUM, Strain/Indicator: TA97, Metabolic Activation: RAT LIVER S-9, AROCLOR 1254 (30%), Method: PREINCUBATION
  mutagenic call: inactive; negative
Test System: AMES SALMONELLA TYPHIMURIUM, Strain/Indicator: TA97, Metabolic Activation: RAT, LIVER, S-9, AROCLOR 1254, Method: STANDARD PLATE
  mutagenic call: inactive; negative
Test System: AMES SALMONELLA TYPHIMURIUM, Strain/Indicator: TA97, Metabolic Activation: S-9, Method: STANDARD PLATE
  mutagenic call: inactive; negative
Test System: AMES SALMONELLA TYPHIMURIUM, Strain/Indicator: TA98, Metabolic Activation: HAMSTER LIVER S-9, AROCLOR 1254 (10%), Method: PREINCUBATION
  mutagenic call: inactive; negative
Test System: AMES SALMONELLA TYPHIMURIUM, Strain/Indicator: TA98, Metabolic Activation: HAMSTER LIVER S-9, AROCLOR 1254 (30%), Method: PREINCUBATION
  mutagenic call: inactive; negative
Test System: AMES SALMONELLA TYPHIMURIUM, Strain/Indicator: TA98, Metabolic Activation: NONE, Method: PREINCUBATION
  mutagenic call: inactive; negative
Test System: AMES SALMONELLA TYPHIMURIUM, Strain/Indicator: TA98, Metabolic Activation: RAT LIVER S-9, AROCLOR 1254 (10%), Method: PREINCUBATION
  mutagenic call: inactive; negative
Test System: AMES SALMONELLA TYPHIMURIUM, Strain/Indicator: TA98, Metabolic Activation: RAT LIVER S-9, AROCLOR 1254 (30%), Method: PREINCUBATION
  mutagenic call: inactive; negative
Test System: AMES SALMONELLA TYPHIMURIUM, Strain/Indicator: TA98, Metabolic Activation: RAT, LIVER, S-9, AROCLOR 1254, Method: STANDARD PLATE
  mutagenic call: inactive; negative
Test System: AMES SALMONELLA TYPHIMURIUM, Strain/Indicator: TA98, Metabolic Activation: RAT, LIVER, S-9, Method: STANDARD PLATE
  mutagenic call: inactive; negative
Test System: AMES SALMONELLA TYPHIMURIUM, Strain/Indicator: TA98, Metabolic Activation: S-9, Method: STANDARD PLATE
  mutagenic call: inactive; negative
Test System: AMES SALMONELLA TYPHIMURIUM, Strain/Indicator: TA100, Metabolic Activation: HAMSTER LIVER S-9, AROCLOR 1254 (10%), Method: PREINCUBATION
  mutagenic call: inactive; negative
Test System: AMES SALMONELLA TYPHIMURIUM, Strain/Indicator: TA100, Metabolic Activation: HAMSTER LIVER S-9, AROCLOR 1254 (30%), Method: PREINCUBATION
  mutagenic call: inactive; negative
Test System: AMES SALMONELLA TYPHIMURIUM, Strain/Indicator: TA100, Metabolic Activation: NONE, Method: PREINCUBATION
  mutagenic call: inactive; negative
Test System: AMES SALMONELLA TYPHIMURIUM, Strain/Indicator: TA100, Metabolic Activation: RAT LIVER S-9, AROCLOR 1254 (10%), Method: PREINCUBATION
  mutagenic call: inactive; negative
Test System: AMES SALMONELLA TYPHIMURIUM, Strain/Indicator: TA100, Metabolic Activation: RAT LIVER S-9, AROCLOR 1254 (30%), Method: PREINCUBATION
  mutagenic call: inactive; negative
Test System: AMES SALMONELLA TYPHIMURIUM, Strain/Indicator: TA100, Metabolic Activation: RAT, LIVER, S-9, AROCLOR 1254, Method: STANDARD PLATE
  mutagenic call: inactive; negative
Test System: AMES SALMONELLA TYPHIMURIUM, Strain/Indicator: TA100, Metabolic Activation: RAT, LIVER, S-9, Method: STANDARD PLATE
  mutagenic call: inactive; negative; toxicity at 100 ug/plate
Test System: AMES SALMONELLA TYPHIMURIUM, Strain/Indicator: TA100, Metabolic Activation: S-9, Method: STANDARD PLATE
  mutagenic call: inactive; negative
Test System: AMES SALMONELLA TYPHIMURIUM, Strain/Indicator: TA102, Metabolic Activation: NONE, Method: STANDARD PLATE
  mutagenic call: inactive; negative
Test System: AMES SALMONELLA TYPHIMURIUM, Strain/Indicator: TA102, Metabolic Activation: S-9, Method: STANDARD PLATE
  mutagenic call: inactive; negative
Test System: AMES SALMONELLA TYPHIMURIUM, Strain/Indicator: TA1535, Metabolic Activation: HAMSTER LIVER S-9, AROCLOR 1254 (30%), Method: PREINCUBATION
  mutagenic call: inactive; negative
Test System: AMES SALMONELLA TYPHIMURIUM, Strain/Indicator: TA1535, Metabolic Activation: HAMSTER LIVER, S-9, AROCLOR 1254 (10%), Method: PREINCUBATION
  mutagenic call: inactive; negative
Test System: AMES SALMONELLA TYPHIMURIUM, Strain/Indicator: TA1535, Metabolic Activation: NONE, Method: PREINCUBATION
  mutagenic call: inactive; negative
Test System: AMES SALMONELLA TYPHIMURIUM, Strain/Indicator: TA1535, Metabolic Activation: RAT LIVER S-9, AROCLOR 1254 (10%), Method: PREINCUBATION
  mutagenic call: inactive; negative
Test System: AMES SALMONELLA TYPHIMURIUM, Strain/Indicator: TA1535, Metabolic Activation: RAT LIVER S-9, AROCLOR 1254 (30%), Method: PREINCUBATION
  mutagenic call: inactive; negative
Test System: AMES SALMONELLA TYPHIMURIUM, Strain/Indicator: TA1535, Metabolic Activation: RAT, LIVER, S-9, AROCLOR 1254, Method: STANDARD PLATE
  mutagenic call: inactive; negative
Test System: AMES SALMONELLA TYPHIMURIUM, Strain/Indicator: TA1535, Metabolic Activation: RAT, LIVER, S-9, Method: STANDARD PLATE
  mutagenic call: inactive; negative; toxicity at 50 and 100 ug/plate
Test System: AMES SALMONELLA TYPHIMURIUM, Strain/Indicator: TA1537, Metabolic Activation: RAT, LIVER, S-9, AROCLOR 1254, Method: STANDARD PLATE
  mutagenic call: inactive; negative
Test System: AMES SALMONELLA TYPHIMURIUM, Strain/Indicator: TA1537, Metabolic Activation: RAT, LIVER, S-9, Method: STANDARD PLATE
  mutagenic call: inactive; negative
Test System: AMES SALMONELLA TYPHIMURIUM, Strain/Indicator: TA1538, Metabolic Activation: NONE, Method: STANDARD PLATE
  mutagenic call: inactive; negative
Test System: AMES SALMONELLA TYPHIMURIUM, Strain/Indicator: TA1538, Metabolic Activation: RAT, LIVER, S-9, AROCLOR 1254, Method: STANDARD PLATE
  mutagenic call: inactive; negative
Test System: AMES SALMONELLA TYPHIMURIUM, Strain/Indicator: TA1538, Metabolic Activation: RAT, LIVER, S-9, Method: STANDARD PLATE
  mutagenic call: inactive; negative
Test System: E. COLI, Strain/Indicator: WP2 UVRA, Metabolic Activation: HAMSTER, LIVER, S-9, AROCLOR 1254, Method: STANDARD PLATE
  mutagenic call: inactive; negative
Test System: E. COLI, Strain/Indicator: WP2 UVRA, Metabolic Activation: HAMSTER, LIVER, S-9, Method: STANDARD PLATE
  mutagenic call: inactive; negative
Test System: E. COLI, Strain/Indicator: WP2 UVRA, Metabolic Activation: MOUSE, LIVER, S-9, AROCLOR 1254, Method: STANDARD PLATE
  mutagenic call: inactive; negative
Test System: E. COLI, Strain/Indicator: WP2 UVRA, Metabolic Activation: MOUSE, LIVER, S-9, Method: STANDARD PLATE
  mutagenic call: inactive; negative
Test System: E. COLI, Strain/Indicator: WP2 UVRA, Metabolic Activation: NONE, Method: STANDARD PLATE
  mutagenic call: inactive; negative
Test System: E. COLI, Strain/Indicator: WP2 UVRA, Metabolic Activation: RAT, LIVER, S-9, AROCLOR 1254, Method: STANDARD PLATE
  mutagenic call: inactive; negative
Test System: E. COLI, Strain/Indicator: WP2 UVRA, Metabolic Activation: RAT, LIVER, S-9, Method: STANDARD PLATE
  mutagenic call: inactive; negative
Test System: MOUSE LYMPHOMA, Strain/Indicator: L5178Y (TK+/+)/OUABAIN, Metabolic Activation: NONE, Method: SUSPENSION/PLATE
  mutagenic call: inactive; negative
Test System: MOUSE LYMPHOMA, Strain/Indicator: L5178Y (TK+/+)/OUABAIN, Metabolic Activation: RAT LIVER S-9, AROCLOR 1254, Method: SUSPENSION/PLATE
  mutagenic call: active; positive
Test System: MOUSE LYMPHOMA, Strain/Indicator: L5178Y (TK+/-)/TRIFLUROTHYMIDINE, Metabolic Activation: NONE, Method: SUSPENSION/PLATE
  mutagenic call: inactive; negative
Test System: MOUSE LYMPHOMA, Strain/Indicator: L5178Y (TK+/-)/TRIFLUROTHYMIDINE, Metabolic Activation: RAT LIVER S-9, AROCLOR 1254, Method: SUSPENSION/PLATE
  mutagenic call: active; positive
Test System: MOUSE LYMPHOMA, Strain/Indicator: L5178Y (TK+/TK-), Metabolic Activation: NONE, Method: MICROWELL
  mutagenic call: inactive; negative
Test System: MOUSE LYMPHOMA, Strain/Indicator: L5178Y (TK+/TK-), Metabolic Activation: S-9, Method: MICROWELL
  mutagenic call: active; positive
Test System: UDS RAT HEPATOCYTES, Strain/Indicator: THY INCORP (18-20 HR), Metabolic Activation: NONE, Method: LIQUID SCINTILLATION COUNTING
  mutagenic call: inactive; negative
Test System: UDS RAT HEPATOCYTES, Strain/Indicator: THY INCORP, Metabolic Activation: NONE, Method: LIQUID SCINTILLATION COUNTING
  mutagenic call: inactive; negative
